{"source": "BindingDB's records for doi:10.1021/jm050824x", "about": "(Chembridge Research Laboratories and Chembridge, 2006)", "key": {"[1]": {"experiment": "Antiproliferative activity against human NPM-ALK positive anaplastic large cell lymphoma karpas299 cell line"}, "[2]": {"experiment": "Antiproliferative activity against murine BaF3 cell line expressing NPM-ALK"}}, "data": [{"compound": "CN1CCN(Cc2ccc(NC(=O)c3cc(-c4ccc5c(c4)OCO5)c[nH]c3=O)cc2)CC1", "note": "[5-benzo[1,3]dioxol-5-yl-2-oxo-1,2-dihydro-pyridine-3-carboxylic acid [4-(4-methyl-piperazin-1-ylmethyl)-phenyl]-amide]", "values": [{"measurement": "IC50", "setting": "[1]", "result": 11.2, "unit": "µM"}, {"measurement": "IC50", "setting": "[2]", "result": "> 25", "unit": "µM"}]}, {"compound": "CN1CCN(CCc2ccc(NC(=O)c3cc(-c4ccc5c(c4)OCO5)c[nH]c3=O)cc2)CC1", "note": "[5-benzo[1,3]dioxol-5-yl-2-oxo-1,2-dihydro-pyridine-3-carboxylic acid {4-[2-(4-methyl-piperazin-1-yl)-ethyl]-phenyl}-amide]", "values": [{"measurement": "IC50", "setting": "[1]", "result": 7.5, "unit": "µM"}]}, {"compound": "CN1CCN(CCCc2ccc(NC(=O)c3cc(-c4ccc5c(c4)OCO5)c[nH]c3=O)cc2)CC1", "note": "[5-benzo[1,3]dioxol-5-yl-2-oxo-1,2-dihydro-pyridine-3-carboxylic acid {4-[3-(4-methyl-piperazin-1-yl)-propyl]-phenyl}-amide]", "values": [{"measurement": "IC50", "setting": "[2]", "result": 13.7, "unit": "µM"}]}]}
